Literature values as cited in patent US20210379059A1, “COMBINATION OF SUBSTANCES FOR REGENERATIVE THERAPY IN PATIENTS WITH TYPE 1 DIABETES MELLITUS” (Levicure Ltd., priority 2018, published 2021).
Where two headings read alike, the source gives them in different places.

What was measured:
[1] = tested on: adult patients with type 1 diabetes; details: 8 weeks, despite a reduction of total and lunch dose of insulin
β-cells [2] = details: mouse cell cultures
β-cells [3] = details: human cell cultures

| SMILES | blood glucose levels [1] | regeneration of β-cells (β-cells [2]) | regeneration of β-cells (β-cells [3]) |
| --- | --- | --- | --- |
| N[C@@H](CC(=O)N1CCn2c(nnc2C(F)(F)F)C1)Cc1cc(F)c(F)cc1F [Sitagliptin] | significantly reduced | – | – |
| NCCCC(=O)O [GABA, gamma-aminobutyric acid] | – | provide the regeneration of β-cells | provide the regeneration of β-cells |
